The results in this text go back to Sander's compilation of Henry's law constants (doi:10.1016/j.hazl.2022.100070).

The nature of this data set: Henry solubility constant Hcp at 298.15 K (mol/(m3 Pa)). To be noted: reference: Abusallout et al. (2022).
As to `C=CC(=O)OCCC(F)(F)C(F)(F)C(F)(F)C(F)(F)C(F)(F)C(F)(F)C(F)(F)C(F)(F)F`, the “Henry solubility constant Hcp” value was 0.0013.

`FC(F)(F)C(F)(F)C(F)(F)C(F)(F)C(F)(F)C(F)(F)CCI` [1,1,1,2,2,3,3,4,4,5,5,6,6-tridecafluoro-8-iodooctane]: the “Henry solubility constant Hcp” value was 0.0013.

Take `OCCC(F)(F)C(F)(F)C(F)(F)C(F)(F)C(F)(F)C(F)(F)C(F)(F)C(F)(F)C(F)(F)C(F)(F)F` [1,1,2,2-tetrahydroperfluoro dodecanol]: the “Henry solubility constant Hcp” value was 0.00014.

Turning to `OCCC(F)(F)C(F)(F)C(F)(F)C(F)(F)C(F)(F)C(F)(F)F` [1H,1H,2H,2H-perfluoro-1-octanol], the “Henry solubility constant Hcp” value worked out at 0.00033.

For `OCCC(F)(F)C(F)(F)C(F)(F)C(F)(F)C(F)(F)C(F)(F)C(F)(F)C(F)(F)F` [1H,1H,2H,2H-perfluorodecan-1-ol], the “Henry solubility constant Hcp” value is 0.0002.

As to `O=S(=O)(O)CCC(F)(F)C(F)(F)C(F)(F)C(F)(F)C(F)(F)C(F)(F)C(F)(F)C(F)(F)F` [1H,1H,2H,2H-perfluorodecane sulfonic acid], the “Henry solubility constant Hcp” value came to 0.0022.

As for `OCCC(F)(F)C(F)(F)C(F)(F)C(F)(F)F` [1H,1H,2H,2H-perfluorohexan-1-ol], the “Henry solubility constant Hcp” value came out at 0.0013.

Regarding `O=S(=O)(O)CCC(F)(F)C(F)(F)C(F)(F)C(F)(F)F` [1H,1H,2H,2H-perfluorohexane sulfonic acid], the “Henry solubility constant Hcp” value turned out to be 0.0045.

With `O=S(=O)(O)CCC(F)(F)C(F)(F)C(F)(F)C(F)(F)C(F)(F)C(F)(F)F` [1H,1H,2H,2H-perfluorooctane sulfonic acid], the “Henry solubility constant Hcp” value stood at 0.0021.

In the case of `FC(F)(F)C(F)(F)C(F)(F)C(F)(F)C(F)(F)C(F)(F)/C=C/I` [1H,2H-perfluoro-1-iodooct-1-ene], the “Henry solubility constant Hcp” value came out at 0.00084.

With `O=C(O)CC(F)(F)C(F)(F)C(F)(F)C(F)(F)C(F)(F)C(F)(F)C(F)(F)C(F)(F)F` [2H,2H-perfluorodecanoic acid], the “Henry solubility constant Hcp” value came out at 0.00058.

On to `C=CC(F)(F)C(F)(F)C(F)(F)C(F)(F)C(F)(F)C(F)(F)F` [(perfluorohexyl)ethene], for which the “Henry solubility constant Hcp” value was 0.00011.

In the case of `CCNS(=O)(=O)C(F)(F)C(F)(F)C(F)(F)C(F)(F)C(F)(F)C(F)(F)C(F)(F)C(F)(F)F` [N-ethylperfluorooctanesulfonamide], the “Henry solubility constant Hcp” value was found to be 0.00094.

For the compound `CNS(=O)(=O)C(F)(F)C(F)(F)C(F)(F)C(F)(F)C(F)(F)C(F)(F)C(F)(F)C(F)(F)F` [N-methylperfluorooctanesulphonamide], the “Henry solubility constant Hcp” value is 0.00044.

Consider `FC(F)(F)C(F)(F)C(F)(F)C(F)(F)C(F)(F)C(F)(F)I` [perfluorohexyl iodide], for which the “Henry solubility constant Hcp” value is 0.00046.
